Experimental data: ChEMBL document CHEMBL1125558 (J Med Chem, 1992)
pIC50: −log10 of the molar value.

Assays:
[1] = biological target: Sodium-dependent dopamine transporter (Rattus norvegicus, UniProt P23977); experiment: Compound was evaluated for its ability to displace [3H]mazindol binding from rat striatal membranes
Rattus norvegicus [2] = species on record: Rattus norvegicus; experiment: Compound was evaluated for its ability to inhibit high-affinity uptake of [3H]dopamine into striatal nerve endings of rat; format: functional
Rattus norvegicus [3] = species on record: Rattus norvegicus; experiment: Result of substitution tests in trained rats and expressed as effective dose(post injection interval 120 min); format: functional; conditions: 2 h
Rattus norvegicus [4] = experiment: Percent response at dose 0.4 mg/kg evaluated by substitution tests in trained rats(post injection interval 240 min); format: functional
Rattus norvegicus [5] = experiment: Percent response at dose 0.4 mg/kg evaluated by substitution tests in trained rats(post injection interval 30 min); format: functional
Rattus norvegicus [6] = experiment: Percent response at dose 0.8 mg/kg evaluated by substitution tests in trained rats(post injection interval 120 min); format: functional
Rattus norvegicus [7] = experiment: Percent response at dose 0.8 mg/kg evaluated by substitution tests in trained rats(post injection interval 240 min); format: functional
Rattus norvegicus [8] = experiment: Percent response at dose 0.8 mg/kg evaluated by substitution tests in trained rats(post injection interval 30 min); format: functional
Rattus norvegicus [9] = species on record: Rattus norvegicus; experiment: Result of substitution tests in trained rats and expressed as effective dose(post injection interval 240 min); format: functional; conditions: 4 h
Rattus norvegicus [10] = species on record: Rattus norvegicus; experiment: Result of substitution tests in trained rats and expressed as effective dose(post injection interval 30 min); format: functional; conditions: 0.5 h
Rattus norvegicus [11] = experiment: Percent response at dose 0.05 mg/kg evaluated by substitution tests in trained rats(post injection interval 120 min); format: functional
Rattus norvegicus [12] = experiment: Percent response at dose 0.05 mg/kg evaluated by substitution tests in trained rats(post injection interval 240 min); format: functional
Rattus norvegicus [13] = experiment: Percent response at dose 0.05 mg/kg evaluated by substitution tests in trained rats(post injection interval 30 min); format: functional
Rattus norvegicus [14] = experiment: Percent response at dose 0.1 mg/kg evaluated by substitution tests in trained rats(post injection interval 120 min); format: functional
Rattus norvegicus [15] = experiment: Percent response at dose 0.1 mg/kg evaluated by substitution tests in trained rats(post injection interval 240 min); format: functional
Rattus norvegicus [16] = experiment: Percent response at dose 0.1 mg/kg evaluated by substitution tests in trained rats(post injection interval 30 min); format: functional
Rattus norvegicus [17] = experiment: Percent response at dose 0.2 mg/kg evaluated by substitution tests in trained rats(post injection interval 120 min); format: functional
Rattus norvegicus [18] = experiment: Percent response at dose 0.2 mg/kg evaluated by substitution tests in trained rats(post injection interval 30 min); format: functional
Rattus norvegicus [19] = experiment: Percent response at dose 0.4 mg/kg evaluated by substitution tests in trained rats(post injection interval 120 min); format: functional
Rattus norvegicus [20] = experiment: Number of animals(n) completing 20 responses on either lever out of the number of animals tested (N) at dose 0.05 mg/kg evaluated by dose-response tests in trained rats(post injection interval 120 min); n/N=7/7; format: functional
Rattus norvegicus [21] = experiment: Number of animals(n) completing 20 responses on either lever out of the number of animals tested (N) at dose 0.05 mg/kg evaluated by dose-response tests in trained rats(post injection interval 240 min); n/N=7/7; format: functional
Rattus norvegicus [22] = experiment: Number of animals(n) completing 20 responses on either lever out of the number of animals tested (N) at dose 0.05 mg/kg evaluated by dose-response tests in trained rats(post injection interval 30 min); n/N=7/7; format: functional
Rattus norvegicus [23] = experiment: Number of animals(n) completing 20 responses on either lever out of the number of animals tested (N) at dose 0.1 mg/kg evaluated by dose-response tests in trained rats(post injection interval 120 min); n/N=7/7; format: functional
Rattus norvegicus [24] = experiment: Number of animals(n) completing 20 responses on either lever out of the number of animals tested (N) at dose 0.1 mg/kg evaluated by dose-response tests in trained rats(post injection interval 240 min); n/N=7/7; format: functional
Rattus norvegicus [25] = experiment: Number of animals(n) completing 20 responses on either lever out of the number of animals tested (N) at dose 0.1 mg/kg evaluated by dose-response tests in trained rats(post injection interval 30 min); n/N=7/7; format: functional
Rattus norvegicus [26] = experiment: Number of animals(n) completing 20 responses on either lever out of the number of animals tested (N) at dose 0.2 mg/kg evaluated by dose-response tests in trained rats(post injection interval 120 min); n/N=7/7; format: functional
Rattus norvegicus [27] = experiment: Number of animals(n) completing 20 responses on either lever out of the number of animals tested (N) at dose 0.2 mg/kg evaluated by dose-response tests in trained rats(post injection interval 240 min); n/N=7/7; format: functional
Rattus norvegicus [28] = experiment: Number of animals(n) completing 20 responses on either lever out of the number of animals tested (N) at dose 0.2 mg/kg evaluated by dose-response tests in trained rats(post injection interval 30 min); n/N=7/7; format: functional
Rattus norvegicus [29] = experiment: Number of animals(n) completing 20 responses on either lever out of the number of animals tested (N) at dose 0.4 mg/kg evaluated by dose-response tests in trained rats(post injection interval 120 min); n/N=3/5; format: functional
Rattus norvegicus [30] = experiment: Number of animals(n) completing 20 responses on either lever out of the number of animals tested (N) at dose 0.4 mg/kg evaluated by dose-response tests in trained rats(post injection interval 240 min); n/N=4/5; format: functional
Rattus norvegicus [31] = experiment: Number of animals(n) completing 20 responses on either lever out of the number of animals tested (N) at dose 0.4 mg/kg evaluated by dose-response tests in trained rats(post injection interval 30 min); n/N=7/7; format: functional
Rattus norvegicus [32] = experiment: Number of animals(n) completing 20 responses on either lever out of the number of animals tested (N) at dose 0.8 mg/kg evaluated by dose-response tests in trained rats(post injection interval 120 min); n/N=1/7; format: functional
Rattus norvegicus [33] = experiment: Number of animals(n) completing 20 responses on either lever out of the number of animals tested (N) at dose 0.8 mg/kg evaluated by dose-response tests in trained rats(post injection interval 240 min); n/N=3/7; format: functional
Rattus norvegicus [34] = experiment: Number of animals(n) completing 20 responses on either lever out of the number of animals tested (N) at dose 0.8 mg/kg evaluated by dose-response tests in trained rats(post injection interval 30 min); n/N=7/7; format: functional
Rattus norvegicus [35] = experiment: Mean responses per minute at dose 0.05 mg/kg evaluated by substitution tests in trained rats(post injection interval 30 min); format: functional
Rattus norvegicus [36] = experiment: Mean responses per minute at dose 0.1 mg/kg evaluated by substitution tests in trained rats(post injection interval 120 min); format: functional
Rattus norvegicus [37] = experiment: Mean responses per minute at dose 0.1 mg/kg evaluated by substitution tests in trained rats(post injection interval 240 min); format: functional
Rattus norvegicus [38] = experiment: Mean responses per minute at dose 0.1 mg/kg evaluated by substitution tests in trained rats(post injection interval 30 min); format: functional
Rattus norvegicus [39] = experiment: Mean responses per minute at dose 0.2 mg/kg evaluated by substitution tests in trained rats(post injection interval 120 min); format: functional
Rattus norvegicus [40] = experiment: Mean responses per minute at dose 0.2 mg/kg evaluated by substitution tests in trained rats(post injection interval 240 min); format: functional
Rattus norvegicus [41] = experiment: Mean responses per minute at dose 0.2 mg/kg evaluated by substitution tests in trained rats(post injection interval 30 min); format: functional
Rattus norvegicus [42] = experiment: Mean responses per minute at dose 0.4 mg/kg evaluated by substitution tests in trained rats(post injection interval 120 min); format: functional
Rattus norvegicus [43] = experiment: Mean responses per minute at dose 0.4 mg/kg evaluated by substitution tests in trained rats(post injection interval 240 min); format: functional
Rattus norvegicus [44] = experiment: Mean responses per minute at dose 0.4 mg/kg evaluated by substitution tests in trained rats(post injection interval 30 min); format: functional
Rattus norvegicus [45] = experiment: Mean responses per minute at dose 0.05 mg/kg evaluated by substitution tests in trained rats(post injection interval 120 min); format: functional
Rattus norvegicus [46] = experiment: Mean responses per minute at dose 0.05 mg/kg evaluated by substitution tests in trained rats(post injection interval 240 min); format: functional
Rattus norvegicus [47] = experiment: Mean responses per minute at dose 0.8 mg/kg evaluated by substitution tests in trained rats(post injection interval 120 min); format: functional
Rattus norvegicus [48] = experiment: Mean responses per minute at dose 0.8 mg/kg evaluated by substitution tests in trained rats(post injection interval 240 min); format: functional
Rattus norvegicus [49] = experiment: Mean responses per minute at dose 0.8 mg/kg evaluated by substitution tests in trained rats(post injection interval 30 min); format: functional
Rattus norvegicus [50] = experiment: Percent response at dose 0.2 mg/kg evaluated by substitution tests in trained rats(post injection interval 240 min); format: functional
Rattus norvegicus [51] = species on record: Rattus norvegicus; experiment: Compound was evaluated for its ability to displace [3H]-mazindol binding from rat striatal membranes

Sequence of Sodium-dependent dopamine transporter (P23977 whole entry): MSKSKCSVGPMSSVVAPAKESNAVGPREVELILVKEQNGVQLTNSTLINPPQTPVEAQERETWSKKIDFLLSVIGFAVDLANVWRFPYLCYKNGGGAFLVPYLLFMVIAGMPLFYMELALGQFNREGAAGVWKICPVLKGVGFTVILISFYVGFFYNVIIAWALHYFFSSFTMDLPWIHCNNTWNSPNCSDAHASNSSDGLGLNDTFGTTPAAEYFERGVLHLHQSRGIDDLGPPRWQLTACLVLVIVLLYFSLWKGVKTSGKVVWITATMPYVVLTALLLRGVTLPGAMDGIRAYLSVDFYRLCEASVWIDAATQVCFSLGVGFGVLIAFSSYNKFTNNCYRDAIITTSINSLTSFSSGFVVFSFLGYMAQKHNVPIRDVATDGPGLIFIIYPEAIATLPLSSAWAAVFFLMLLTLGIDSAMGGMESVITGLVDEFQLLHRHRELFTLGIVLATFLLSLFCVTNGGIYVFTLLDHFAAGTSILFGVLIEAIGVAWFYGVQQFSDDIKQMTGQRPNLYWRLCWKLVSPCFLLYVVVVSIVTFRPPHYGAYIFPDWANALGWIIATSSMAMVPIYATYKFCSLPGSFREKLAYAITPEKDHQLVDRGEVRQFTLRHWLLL

SMILES: C=C[C@@H]1C2CC[C@H](C[C@@H]1OC(=O)c1ccccc1)N2C
- pIC50 [1]: 5.76
- pIC50 (Rattus norvegicus [2]): 5.95

SMILES: CN1C2CC[C@@H]1C[C@H](OC(=O)c1ccccc1)[C@@H]2/C=C/Cl
- pIC50 [1]: 6.65
- pIC50 (Rattus norvegicus [2]): 6.43

SMILES: C=C[C@@H]1C2CCC(C[C@@H]1c1ccc(Cl)cc1)N2C (stereo partly specified)
- ED50 (Rattus norvegicus [3]): 0.08 mg/kg
- Drug response (Rattus norvegicus [4]): 91%
- Drug response (Rattus norvegicus [5]): 99%
- Drug response (Rattus norvegicus [6]): 95%
- Drug response (Rattus norvegicus [7]): 100%
- Drug response (Rattus norvegicus [8]): 93%
- ED50 (Rattus norvegicus [9]): 0.09 mg/kg
- ED50 (Rattus norvegicus [10]): 0.11 mg/kg
- Drug response (Rattus norvegicus [11]): 22%
- Drug response (Rattus norvegicus [12]): 14%
- Drug response (Rattus norvegicus [13]): 19%
- Drug response (Rattus norvegicus [14]): 75%
- Drug response (Rattus norvegicus [15]): 61%
- Drug response (Rattus norvegicus [16]): 40%
- Drug response (Rattus norvegicus [17]): 100%
- Drug response (Rattus norvegicus [18]): 83%
- Drug response (Rattus norvegicus [19]): 72%
- pIC50 (Rattus norvegicus [2]): 8.55
- No. resp animals / Total (Rattus norvegicus [20]): 7 / 7
- No. resp animals / Total (Rattus norvegicus [21]): 7 / 7
- No. resp animals / Total (Rattus norvegicus [22]): 7 / 7
- No. resp animals / Total (Rattus norvegicus [23]): 7 / 7
- No. resp animals / Total (Rattus norvegicus [24]): 7 / 7
- No. resp animals / Total (Rattus norvegicus [25]): 4 / 5
- No. resp animals / Total (Rattus norvegicus [26]): 7 / 7
- No. resp animals / Total (Rattus norvegicus [27]): 7 / 7
- No. resp animals / Total (Rattus norvegicus [28]): 7 / 7
- No. resp animals / Total (Rattus norvegicus [29]): 7 / 7
- No. resp animals / Total (Rattus norvegicus [30]): 1 / 7
- No. resp animals / Total (Rattus norvegicus [31]): 7 / 7
- No. resp animals / Total (Rattus norvegicus [32]): 5 / 5
- No. resp animals / Total (Rattus norvegicus [33]): 3 / 7
- No. resp animals / Total (Rattus norvegicus [34]): 7 / 7
- Rate response (Rattus norvegicus [35]): 29.6 min⁻¹
- Rate response (Rattus norvegicus [36]): 25.7 min⁻¹
- Rate response (Rattus norvegicus [37]): 23.5 min⁻¹
- Rate response (Rattus norvegicus [38]): 37.1 min⁻¹
- Rate response (Rattus norvegicus [39]): 46.8 min⁻¹
- Rate response (Rattus norvegicus [40]): 47.9 min⁻¹
- Rate response (Rattus norvegicus [41]): 26.2 min⁻¹
- Rate response (Rattus norvegicus [42]): 24.9 min⁻¹
- Rate response (Rattus norvegicus [43]): 23.6 min⁻¹
- Rate response (Rattus norvegicus [44]): 52.8 min⁻¹
- Rate response (Rattus norvegicus [45]): 18.4 min⁻¹
- Rate response (Rattus norvegicus [46]): 28.3 min⁻¹
- Rate response (Rattus norvegicus [47]): 7.7 min⁻¹
- Rate response (Rattus norvegicus [48]): 39.1 min⁻¹
- Rate response (Rattus norvegicus [49]): 33.5 min⁻¹
- Drug response (Rattus norvegicus [50]): 98%

SMILES: CN1C2CCC1[C@@H](/C=C/Cl)[C@@H](c1ccc(Cl)cc1)C2 (stereo partly specified)
- pIC50 (Rattus norvegicus [51]): 9.15
- pIC50 (Rattus norvegicus [2]): 8.89

SMILES: COC(=O)C1C2CC[C@H](C[C@@H]1c1ccc(Cl)cc1)N2C (stereo partly specified)
- pIC50 (Rattus norvegicus [2]): 8.49
